Here are results for 15 molecules from patent US20220280527A1, “TRACE AMINE ASSOCIATED RECEPTOR 1 AGONISTS AND PARTIAL AGONISTS FOR PAIN TREATMENT” (Purdue Pharma L.P., priority 2016, published 2022).

In series [1] the target is T1, hTAAR1 (Homo sapiens, UniProt Q96RJ0).
T1 construct: expressed in transfected cells; host or cells: recombinant cells
T1 sequence (Q96RJ0 1-339): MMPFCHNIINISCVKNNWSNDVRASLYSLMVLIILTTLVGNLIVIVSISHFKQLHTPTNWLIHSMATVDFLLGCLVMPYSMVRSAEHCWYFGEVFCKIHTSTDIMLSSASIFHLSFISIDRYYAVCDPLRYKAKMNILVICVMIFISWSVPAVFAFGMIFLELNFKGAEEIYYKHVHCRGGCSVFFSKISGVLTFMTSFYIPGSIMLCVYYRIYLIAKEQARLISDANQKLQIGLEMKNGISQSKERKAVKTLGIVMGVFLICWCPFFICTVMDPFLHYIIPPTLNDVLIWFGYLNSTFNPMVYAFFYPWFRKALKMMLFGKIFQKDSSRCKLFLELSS
Description: hTAAR1 functional assay (cAMP). The class given is cell-based. As to conditions: for EC50: read-out: hTAAR1 EC50 (mean ± SEM (n)); for Emax: read-out: hTAAR1 Emax (mean ± SEM (n)). The method, then:
EC50 and Erna, values are reported for these compounds in Table 1.
A GPCR cAMP Modulation Assay can be used to determine whether a compound can be considered an agonist or antagonist.
cAMP Hunter cell lines were expanded from freezer stocks according to standard procedures. Cells were seeded into white walled, 384-well microplates in a total volume of 20 μL and incubated at 37° C. prior to testing. cAMP modulation was determined using a DiscoverX HitHunter cAMP XS+assay.
To determine whether a compound would be considered an agonist, cells were incubated with a test compound to induce a response. Media was aspirated from cells and replaced with 15 μL, 2:1 HBSS/10mM Hepes: cAMP XS+Ab reagent. Sample stocks were diluted immediately to generate a 4X sample in assay buffer. 5 μL of the 4X sample was added to cells and incubated at room temperature or 37° C. for 30 or 60 minutes. Final assay vehicle concentration was 1%.
After appropriate compound incubation, assay signal was generated by incubation with […] cAMP XS+ED/CL lysis cocktail for one hour followed, which was followed with room temperature incubation with […] cAMP XS+EA reagent for three hours. Microplates were read following signal generation with a PerkinElmer Envision^Tm instrument for chemiluminescent signal detection.
CBIS data analysis suite (ChemInnovation, CA) was used to analyze compound activity. RLU stands for relative light units.
For Gs agonist mode assays, percent activity was calculated using the following formula: […]

Series [2] deals with Sprague-Dawley rats. Description: SNL-induced mechanical hyperalgesia model (paw pressure test, PWT). The class given is in vivo, rat. As to conditions: for minimum effective dose (MED): 1 hour prior to testing. On the procedure: Surgery is performed under isoflurane/O, inhalation anesthesia. Following induction of anesthesia, a 3 centimeter incision is made and the left paraspinal muscles are separated from the spinous process at the L4-S2 levels. The L6 transverse process is carefully removed with a pair of small rongeurs to identify visually the L4-L6 spinal nerves. The left L5 (or L5 and L6) spinal nerve(s) is isolated and tightly ligated with silk thread. A complete hemostasis is confirmed and the wound is sutured using non-absorbable sutures, such as nylon sutures or stainless steel staples. Sham-rats undergo an identical surgical procedure except that the spinal nerve(s) is not manipulated. Following surgery animals are weighed, administered a subcutaneous (SC) injection of saline or ringers lactate, the wound area is dusted with antibiotic powder and they are kept on a warm pad until they recover from the anesthesia. Animals are then returned to their home cages until behavioral testing begins (i.e., 3-4 weeks post-surgery). The animals are assessed for their response to either a noxious or non-noxious stimuli, described below, prior to surgery (baseline), then 1, 3, and 5 hours after being administered a compound of the present disclosure 3 or 4 weeks post-surgery.
Hyperalgesia: The paw pressure assay can be used to assess mechanical hyperalgesia. Sensitivity to noxious mechanical stimuli is measured in animals using the paw pressure test to assess mechanical hyperalgesia. In rats, hind paw withdrawal thresholds (“PWT”), measured in grams, in response to a noxious mechanical stimulus are determined using an analgesymeter (Model 7200, commercially available from Ugo Basile of Italy), as described in C. Stein, “Unilateral Inflammation of the Hindpaw in Rats as a Model of Prolonged Noxious Stimulation: Alterations in Behavior and Nociceptive Thresholds,” Pharmacol. Biochem. and Behavior 31:451-455 (1988). The rat is gently restrained, its hindpaw is placed on a small round platform, and punctate pressure is applied to the dorsal surface of the hindpaw in a graded manner. The maximum weight that is applied to the hind paw is set at 250 grams and the end point is taken as complete withdrawal of the paw. PWT is determined once for each rat at each time point and either only the affected (ipsilateral; same side as the injury) rear paw is tested, or both the ipsilateral and contralateral (non-injured; opposite to the injury) rear paw are tested. Rats are tested prior to surgery or FCA administration to determine a baseline, or normal, PWT. Rats are tested again 3-4 weeks post-surgery or 24 hours post-FCA injection and at different times after (e.g., 1, 3, and 5 hours) compound or vehicle administration. A sham control is also implemented to determine the PWT of a rat having neither surgery nor compound administration.
Representative agonists and partial agonists of the present disclosure are tested in the spinal nerve ligation (“SNL”)-induced mechanical hyperalgesia model in male, Sprague-Dawley rats. Sensitivity to noxious mechanical stimuli is measured in animals using the paw pressure test to assess mechanical hyperalgesia. In rats, hind paw withdrawal thresholds (“PWT”), measured in grams, in response to a noxious mechanical stimulus are determined using an analgesymeter (Model 7200, commercially available from Ugo Basile of Italy), as described in C. Stein, “Unilateral Inflammation of the Hindpaw in Rats as a Model of Prolonged Noxious Stimulation: Alterations in Behavior and Nociceptive Thresholds,” Pharmacol. Biochem. & Behavior 31:451-455 (1988). Briefly, the rat's paw is placed on a small platform, and weight is applied in a graded manner up to a maximum of 250 grams. The endpoint is taken as the weight at which the paw is completely withdrawn. PWT is determined once for each rat at each time point. PWT is measured only in the injured paw. Rats are tested prior to surgery to determine a baseline, or normal, PWT. […]

Series [3] deals with Sprague-Dawley rats. Description: Tail flick test (nociceptive pain). The class given is in vivo, rat. As to conditions: positive control, administered subcutaneously one hour prior to testing. In general terms: In hot-plate and tail-flick tests a longer latency is read as antinociception.
The subject of series [4] is 254 bp β-arresting KO rats. Nature of the series: SNL-induced mechanical hyperalgesia in 254 bp β-arresting KO rats. The class given is in vivo, rat. As to conditions: IP dosing, achieved at 1 hour.
Series [5] has as its system 1276 bp GRK5 KO rats. Nature of the series: SNL-induced mechanical hyperalgesia in 1276 bp GRK5 KO rats. It counts as in vivo, rat. The following applies: IP dosing, achieved at 3 hours.
Series [6] concerns Sprague-Dawley rats. Description: Rotarod performance. It counts as in vivo, rat. The following applies: IP at 30 mg/kg, 1 hour post dosing. The method, then: The Rotarod test is used to evaluate motor coordination, strength, and balance. The animals are placed on the rotating rod of the device. The time during which an animal can maintain itself on said bar at an accelerating speed of 5-40 rpm is recorded. 300 seconds is the assay cut-off. Data are analyzed by a two-way ANOVA using a Bonferroni Multiple Comparisons test. […] In the experiment, male, Sprague-Dawley rats, 211-241 g (n=10/group) were tested on an accelerating rotarod (AccuScan; manual 5-40 rpm).

As usually defined, the EC50 is the concentration that produces a half-maximal response. A word on the Emax: it is the greatest response seen or fitted, relative to the assay's reference. As for `CCOc1cccc(NC(=O)c2ccc(N3CCCC3)c(C(F)(F)F)c2)c1`, in series [1], the half-maximal effective concentration (EC50) was more than 10000 nM and the Emax was 6.1 ± 3%.

Consider `CC(C)N(Cc1c[nH]cn1)c1ccc(Cl)cc1` [Compound 1, N-((1H-imidazol-4-yl)methyl)-4-chloro-N-isopropylaniline], for which the “maximum reversal of SNL-induced mechanical hyperalgesia” value (“maximum reversal” below) was 41% in series [2] (IP dosing, achieved at 3 hours) and 69% in series [2] (PO dosing, achieved at 3 hours). Moreover, the “minimum effective dose (MED)” value in series [2] (PO dosing) was less than 3 mg/kg.

Regarding `Clc1ccc(Nc2ccc(C3CNCCO3)nc2)cc1` (stereo not drawn), in series [1], the EC50 was 123 ± 9.99 nM and the Emax was found to be 56.1 ± 7.5%.

Turning to `O=C(Nc1ccc(C2CCNC2)cc1)c1ccc(Cl)cn1` (stereo not drawn), in series [1], the EC50 is 475 ± 50.1 nM and the Emax is 73.5 ± 3%.

Consider `CN1CC[C@]23c4c5ccc(O)c4O[C@H]2[C@@H](O)C=C[C@H]3[C@H]1C5` [morphine], for which the “analgesic efficacy in the tail flick assay” value in series [3] is given as “robust analgesic efficacy”.

As for `NC1CCc2cc(NC(=O)c3ccnc(C(F)(F)F)c3)ccc2C1` (stereo not drawn), in series [1], the “hTAAR1 Emax (mean ± SEM (n))” value was 85.8 ± 3.0% (2.8) and the concentration giving a half-maximal response (EC50) was found to be 163 nM.

In the case of `NC1=N[C@@H](CCc2ccc(NC(=O)c3ccc(Cl)cc3)cc2)CO1`, in series [1], the EC50 came to 8.53 ± 0.25 nM and the Emax stood at 42.7 ± 3%.

Take `NC1=N[C@@H](c2ccc(Cl)c(Cl)c2)CO1`: the Emax in series [1] is 35.5 ± 3%.

As for `CCN(CC1COC(N)=N1)c1ccccc1` (stereo not drawn) [drawing 40], in series [1], the EC50 turned out to be 92 ± 10.9 nM and the maximum response (Emax) amounted to 81.7 ± 3%.

Take `O=C(Nc1ccc(C2O[C@@H]3CN[C@H]2C3)cc1)c1ccc(Cl)cc1` (stereo partly drawn): in series [1], the “hTAAR1 Emax (mean ± SEM (n))” value is 29.7 ± 14.2% (3) and the half-maximal effective concentration (EC50) turned out to be 7210 nM.

For the molecule `O=C(Nc1ccc(C2CCNC2)cc1)Nc1ccc(Cl)cn1` (stereo not drawn), in series [1], the concentration for a half-maximal effect (EC50) came to 54.5 ± 18.6 nM and the maximal response (Emax) amounted to 80.9 ± 3%.

`CCN(CC1COC(N)=N1)c1ccccc1` (stereo not drawn) [Compound 2, 4-((ethyl(phenyl)amino)methyl)-4,5-dihydrooxazol-2-amine]: the “minimum effective dose (MED)” value in series [2] (IP dosing) was less than 1 mg/kg; in series [2] (PO dosing), 10 mg/kg. Besides, the “maximum reversal” value in series [2] (IP dosing, achieved at 3 hours) is recorded as 76%; in series [2] (PO dosing, achieved at 3 hours), 22%; in series [4], 43%; in series [5], 61%. For the same molecule, the “rotarod performance (motor performance)” value in series [6] was “produced deficits in motor performance”.

For `CC(C)n1nc(OCC(F)(F)F)cc1C(=O)Nc1ccc(C2OC3CN[C@H]2C3)cc1` (stereo partly drawn), in series [1], the “hTAAR1 Emax (mean ± SEM (n))” value is recorded as 66.6 ± 14.9% (3) and the EC50 stood at 519 nM.

As to `NC1=NC(c2ccc(Cl)c(Cl)c2)CO1` (stereo not drawn) [Compound 3, 4-(3,4-dichlorophenyl)-4,5-dihydrooxazol-2-amine], the “minimum effective dose (MED)” value is on record as 3 mg/kg in series [2] (IP dosing) and 10 mg/kg in series [2] (PO dosing). Also, the “maximum reversal” value turned out to be 56% in series [2] (IP dosing, achieved at 3 hours) and 23% in series [2] (PO dosing, achieved at 1 hour).

For the molecule `Cc1c(F)cccc1[C@H]1COC(N)=N1`, in series [1], the EC50 is 13.7 ± 5.01 nM and the Emax amounted to 68.7 ± 3%.
